# Results from patent publication EP4717694A1, “PYRAZOLFORMYL PIPERAZINONE COMPOUND, PHARMACEUTICAL COMPOSITION AND USE THEREOF” (Iregene Therapeutics Co., Ltd., priority 2023, dated 2024).
# Assays:
# [1] = molecular target: BMPR1B kinase (Homo sapiens, UniProt O00238); assay: Kinase activity screening (330 kinases, HTRF or ADP-Glo); type: biochemical; conditions: screen of 330 kinases; II-1 2.5 mM, 25 nL in DMSO added to 2.5 µL kinase; Figure 1A
# Method: A total of 330 kinase candidates (15-50 nM, 2.5 µL) were mixed with compound II-1 (2.5 mM, 25 nL, prepared in DMSO) and incubated at 25 °C for 10 minutes. Then, a mixture of kinase peptide substrate (0.2 mg/mL; supplier: GenScript) and ATP (10-60 µM; supplier: Promega; product number: V915B) was added (total 2.5 µL, prepared in assay buffer), and the reaction was carried out at 25 °C for 60-120 minutes. Finally, the reaction products were quantified using HTRF1 or ADP-Glo2 methods. During the kinase activity assay, the consumption of each substrate was kept below 10%, and each kinase assay was performed in duplicate.
# [2] = system: OVCAR3; assay: CCK-8 cell viability assay; type: cell-based
# Method: (§1) Tumor cells OVCAR3 (ovarian cancer), HeLa ([…]), U251 (glioma), H9 cells, and non-tumor HEK293 cells were cultured in DMEM/F12 medium supplemented with 10% FBS and 1% P/S. When cells reached 70% confluency, they were digested with 0.25% Trypsin at 37°C for 2-3 minutes, and digestion was stopped with DMEM/F12 medium. Cell suspensions were collected in 15 mL centrifuge tubes, centrifuged at 1000 rpm for 5 minutes, the supernatant was discarded, and cells were resuspended in DMEM/F12 medium with 10% FBS and 1% P/S. Cells were counted using a hemocytometer, and based on the counts, they were resuspended to the desired concentration. Tumor cells were seeded in 96-well plates at 1×10^4 cells per well, 100 µL per well. From day 1 to day 7 after seeding, cells were treated with compound II-1 at 0 µM, 10 µM, 30 µM, and 50 µM (the pyrazolecarbonyl piperazinone compounds were diluted to 10 µM, 30 µM, and 50 µM with DMEM + 10% FBS). Each concentration was tested in triplicate wells.
# (§2) Cell viability on days 1, 3, 5, and 7 was determined using the CCK-8 cell proliferation/cytotoxicity assay kit (Vazyme, A311-02) by measuring absorbance at OD450 nm, with wells containing only medium and CCK-8 solution as blank controls. Each concentration was measured in triplicate.
# (§3) Calculation of cell survival rate: For the same cell type at the same time point, the absorbance of cells not treated with compound II-1 was set as 100% baseline. For cells treated with different concentrations, the absorbance was compared with the control group (CK) to calculate the relative proportion. For example, the survival rate of H9 cells on day 4 treated with 30 µM of the small molecule compound was calculated as follows: [OD(D4)30μMiPS]/[OD(D4)0μMH9] × 100% [formula] Table 2. Cell survival rates of various cell types after treatment with different concentrations of compound II-1 measured by CCK-8 assay
# [3] = system: Hela; assay: CCK-8 cell viability assay; type: cell-based
# Method: as §1, §2, §3
# [4] = system: U251; assay: CCK-8 cell viability assay; type: cell-based
# Method: as §1, §2, §3
# [5] = system: HEK293; assay: CCK-8 cell viability assay; type: cell-based
# Method: as §1, §2, §3
# [6] = system: H9; assay: CCK-8 cell viability assay; type: cell-based
# Method: as §1, §2, §3
# BMPR1B kinase, sequence (O00238 14-502): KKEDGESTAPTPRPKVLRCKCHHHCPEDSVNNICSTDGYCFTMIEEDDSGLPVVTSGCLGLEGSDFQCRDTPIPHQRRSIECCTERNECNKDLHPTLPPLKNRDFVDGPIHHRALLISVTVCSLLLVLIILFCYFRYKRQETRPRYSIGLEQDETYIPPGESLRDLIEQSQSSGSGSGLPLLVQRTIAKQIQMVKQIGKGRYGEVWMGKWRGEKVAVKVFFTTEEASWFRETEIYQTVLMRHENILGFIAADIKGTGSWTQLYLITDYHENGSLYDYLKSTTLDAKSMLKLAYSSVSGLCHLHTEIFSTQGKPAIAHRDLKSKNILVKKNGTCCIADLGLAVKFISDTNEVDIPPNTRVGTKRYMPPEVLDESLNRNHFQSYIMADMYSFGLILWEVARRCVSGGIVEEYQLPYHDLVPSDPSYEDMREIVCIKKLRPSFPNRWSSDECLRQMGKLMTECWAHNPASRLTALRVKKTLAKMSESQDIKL
structure (smiles),measurement,setting,value
"O=C1CN(C(=O)c2n[nH]c3c2CCC3)[C@H]2CCCC[C@@H]2N1 [II-1, (4aS,8aS)-4-(1,4,5,6-tetrahydrocyclopenta[c]pyrazole-3-carbonyl)octahydroquinoxalin-2(1H)-one]",inhibitory activity against BMPR1B kinase,[1],significant inhibitory activity
same,Cell survival rate,"[2]; OVCAR3, II-1 10 µM, Day 1 Treatment",95.05%
same,Cell survival rate,"[2]; OVCAR3, II-1 10 µM, Day 3 Treatment",98.06%
same,Cell survival rate,"[2]; OVCAR3, II-1 10 µM, Day 5 Treatment",96.19%
same,Cell survival rate,"[2]; OVCAR3, II-1 10 µM, Day 7 Treatment",97.99%
same,Cell survival rate,"[2]; OVCAR3, II-1 30 µM, Day 1 Treatment",89.67%
same,Cell survival rate,"[2]; OVCAR3, II-1 30 µM, Day 3 Treatment",94.18%
same,Cell survival rate,"[2]; OVCAR3, II-1 30 µM, Day 5 Treatment",92.35%
same,Cell survival rate,"[2]; OVCAR3, II-1 30 µM, Day 7 Treatment",90.98%
same,Cell survival rate,"[2]; OVCAR3, II-1 50 µM, Day 1 Treatment",88.56%
same,Cell survival rate,"[2]; OVCAR3, II-1 50 µM, Day 3 Treatment",90.37%
same,Cell survival rate,"[2]; OVCAR3, II-1 50 µM, Day 5 Treatment",85.37%
same,Cell survival rate,"[2]; OVCAR3, II-1 50 µM, Day 7 Treatment",80.83%
same,"cell viability, course with time and concentration","[2]; OVCAR3, II-1 10-50 µM, days 1-7",gradual decrease in cell viability over time
same,Cell survival rate,"[3]; II-1 10 µM, Day 1 Treatment",103.32%
same,Cell survival rate,"[3]; II-1 10 µM, Day 3 Treatment",98.58%
same,Cell survival rate,"[3]; II-1 10 µM, Day 5 Treatment",97.35%
same,Cell survival rate,"[3]; II-1 10 µM, Day 7 Treatment",97.27%
same,Cell survival rate,"[3]; II-1 30 µM, Day 1 Treatment",100.64%
same,Cell survival rate,"[3]; II-1 30 µM, Day 3 Treatment",93.45%
same,Cell survival rate,"[3]; II-1 30 µM, Day 5 Treatment",90.71%
same,Cell survival rate,"[3]; II-1 30 µM, Day 7 Treatment",85.04%
same,Cell survival rate,"[3]; II-1 50 µM, Day 1 Treatment",88.66%
same,Cell survival rate,"[3]; II-1 50 µM, Day 3 Treatment",81.80%
same,Cell survival rate,"[3]; II-1 50 µM, Day 5 Treatment",80.31%
same,Cell survival rate,"[3]; II-1 50 µM, Day 7 Treatment",75.83%
same,"cell viability, course with time and concentration","[3]; II-1 10-50 µM, days 1-7",gradual decrease in cell viability over time
same,Cell survival rate,"[4]; U251, II-1 10 µM, Day 1 Treatment",100.75%
same,Cell survival rate,"[4]; U251, II-1 10 µM, Day 3 Treatment",98.96%
same,Cell survival rate,"[4]; U251, II-1 10 µM, Day 5 Treatment",95.19%
same,Cell survival rate,"[4]; U251, II-1 10 µM, Day 7 Treatment",94.74%
same,Cell survival rate,"[4]; U251, II-1 30 µM, Day 1 Treatment",99.49%
same,Cell survival rate,"[4]; U251, II-1 30 µM, Day 3 Treatment",87.01%
same,Cell survival rate,"[4]; U251, II-1 30 µM, Day 5 Treatment",79.39%
same,Cell survival rate,"[4]; U251, II-1 30 µM, Day 7 Treatment",74.00%
same,Cell survival rate,"[4]; U251, II-1 50 µM, Day 1 Treatment",98.61%
same,Cell survival rate,"[4]; U251, II-1 50 µM, Day 3 Treatment",85.27%
same,Cell survival rate,"[4]; U251, II-1 50 µM, Day 5 Treatment",70.43%
same,Cell survival rate,"[4]; U251, II-1 50 µM, Day 7 Treatment",63.89%
same,"cell viability, course with time and concentration","[4]; U251, II-1 10-50 µM, days 1-7",gradual decrease in cell viability over time
same,Cell survival rate,"[5]; HEK293, II-1 10 µM, Day 1 Treatment",96.09%
same,Cell survival rate,"[5]; HEK293, II-1 10 µM, Day 3 Treatment",96.67%
same,Cell survival rate,"[5]; HEK293, II-1 10 µM, Day 5 Treatment",98.80%
same,Cell survival rate,"[5]; HEK293, II-1 10 µM, Day 7 Treatment",99.24%
same,Cell survival rate,"[5]; HEK293, II-1 30 µM, Day 1 Treatment",93.69%
same,Cell survival rate,"[5]; HEK293, II-1 30 µM, Day 3 Treatment",94.14%
same,Cell survival rate,"[5]; HEK293, II-1 30 µM, Day 5 Treatment",94.39%
same,Cell survival rate,"[5]; HEK293, II-1 30 µM, Day 7 Treatment",94.97%
same,Cell survival rate,"[5]; HEK293, II-1 50 µM, Day 1 Treatment",80.80%
same,Cell survival rate,"[5]; HEK293, II-1 50 µM, Day 3 Treatment",90.72%
same,Cell survival rate,"[5]; HEK293, II-1 50 µM, Day 5 Treatment",92.46%
same,Cell survival rate,"[5]; HEK293, II-1 50 µM, Day 7 Treatment",93.56%
same,"cell viability, course with time and concentration","[5]; non-tumor HEK293, II-1 10-50 µM, days 1-7",did not show significant changes
same,Cell survival rate,"[6]; H9, II-1 10 µM, Day 1 Treatment",90.37%
same,Cell survival rate,"[6]; H9, II-1 10 µM, Day 3 Treatment",92.91%
same,Cell survival rate,"[6]; H9, II-1 10 µM, Day 5 Treatment",84.84%
same,Cell survival rate,"[6]; H9, II-1 10 µM, Day 7 Treatment",83.47%
same,Cell survival rate,"[6]; H9, II-1 30 µM, Day 1 Treatment",84.96%
same,Cell survival rate,"[6]; H9, II-1 30 µM, Day 3 Treatment",86.01%
same,Cell survival rate,"[6]; H9, II-1 30 µM, Day 5 Treatment",80.25%
same,Cell survival rate,"[6]; H9, II-1 30 µM, Day 7 Treatment",78.71%
same,Cell survival rate,"[6]; H9, II-1 50 µM, Day 1 Treatment",76.96%
same,Cell survival rate,"[6]; H9, II-1 50 µM, Day 3 Treatment",73.87%
same,Cell survival rate,"[6]; H9, II-1 50 µM, Day 5 Treatment",69.10%
same,Cell survival rate,"[6]; H9, II-1 50 µM, Day 7 Treatment",65.98%
same,"cell viability, course with time and concentration","[6]; H9, II-1 10-50 µM, days 1-7",gradual decline in viability
